Measurements reported in ChEMBL document CHEMBL4024739, “Diversity-oriented sustainable synthesis of antimicrobial spiropyrrolidine/thiapyrrolizidine oxindole derivatives: New ligands for a metallo-β-lactamase from Klebsiella pneumonia” (2017).
≈ marks a conversion by molar mass, not a printed value.

Columns and labels:
Type in all cases: functional
[1] = test system: Escherichia coli; experiment: Antibacterial activity against Escherichia coli ATCC 9637 by spectrophotometric method; conditions: W
[2] = test system: Pseudomonas aeruginosa; experiment: Antibacterial activity against Pseudomonas aeruginosa ATCC BAA-427 by spectrophotometric method
[3] = test system: Staphylococcus aureus; experiment: Antibacterial activity against Staphylococcus aureus ATCC 25923 by spectrophotometric method
[4] = test system: Klebsiella pneumoniae; experiment: Antibacterial activity against Klebsiella pneumoniae ATCC 27736 by spectrophotometric method
[5] = test system: Cryptococcus neoformans; experiment: Antifungal activity against Cryptococcus neoformans by spectrophotometric method
[6] = test system: Candida albicans; experiment: Antifungal activity against Candida albicans by spectrophotometric method
[7] = test system: Sporothrix schenckii; experiment: Antifungal activity against Sporothrix schenckii by spectrophotometric method
[8] = test system: Trichophyton mentagrophytes; experiment: Antifungal activity against Trichophyton mentagrophytes by spectrophotometric method
[9] = test system: Aspergillus fumigatus; experiment: Antifungal activity against Aspergillus fumigatus by spectrophotometric method
[10] = test system: Candida parapsilosis; experiment: Antifungal activity against Candida parapsilosis ATCC 22019 by spectrophotometric method; conditions: Lodderomyces parapsilosis
[11] = test system: Klebsiella pneumoniae; experiment: Potency index, ratio of gentamicin MIC to compound MIC for Klebsiella pneumoniae ATCC 27736
[12] = test system: Klebsiella pneumoniae; experiment: Potency index, ratio of amphicillin MIC to compound MIC for Klebsiella pneumoniae ATCC 27736

| Molecule | MIC [1] | MIC [2] | MIC [3] | MIC [4] | MIC [5] | MIC [6] | MIC [7] | MIC [8] | MIC [9] | MIC [10] | Ratio [11] | Ratio [12] |
| --- | --- | --- | --- | --- | --- | --- | --- | --- | --- | --- | --- | --- |
| CCOC(=O)[C@]1(C#N)[C@@H](c2c(F)cccc2Cl)C2CSCN2[C@@]12C(=O)Nc1ccccc12 (some centres not stated) | > 50 mg/L | > 50 mg/L | > 50 mg/L | 0.045 mg/L (≈ 0.0954 µM) | > 50 mg/L | > 50 mg/L | > 50 mg/L | 50 mg/L (≈ 106 µM) | > 50 mg/L | > 50 mg/L |  |  |
| CCOC(=O)[C@]1(C#N)[C@@H](c2c(F)cccc2Cl)CN(C)[C@@]12C(=O)Nc1c(C)cc(C)cc12 | > 50 mg/L | > 50 mg/L | 12.5 mg/L (≈ 27.4 µM) | 3.12 mg/L (≈ 6.84 µM) | 50 mg/L (≈ 110 µM) | 50 mg/L (≈ 110 µM) | 25 mg/L (≈ 54.8 µM) | 12.5 mg/L (≈ 27.4 µM) | 25 mg/L (≈ 54.8 µM) | 50 mg/L (≈ 110 µM) |  |  |
| N#CC1(C#N)[C@@H](c2ccc(Cl)c(Cl)c2)C2CSCN2[C@@]12C(=O)Nc1ccccc12 (some centres not stated) | > 50 mg/L | > 50 mg/L | > 50 mg/L | 0.005 mg/L (≈ 0.0113 µM) | > 50 mg/L | > 50 mg/L | > 50 mg/L | 50 mg/L (≈ 113 µM) | > 50 mg/L | > 50 mg/L | 156 | 78 |
| GENTAMICIN | 0.78 mg/L | 0.78 mg/L | 0.39 mg/L | 0.78 mg/L |  |  |  |  |  |  |  |  |
| CCOC(=O)[C@]1(C#N)[C@@H](c2c(F)cccc2Cl)CN(C)[C@@]12C(=O)Nc1ccc(Cl)cc12 | > 50 mg/L | > 50 mg/L | > 50 mg/L | 25 mg/L (≈ 54.1 µM) | 50 mg/L (≈ 108 µM) | 50 mg/L (≈ 108 µM) | 50 mg/L (≈ 108 µM) | 50 mg/L (≈ 108 µM) | 50 mg/L (≈ 108 µM) | 50 mg/L (≈ 108 µM) |  |  |
| CCOC(=O)[C@]1(C#N)[C@@H](c2ccc(Cl)c(Cl)c2)CN(C)[C@@]12C(=O)Nc1c(C)cc(C)cc12 | > 50 mg/L | > 50 mg/L | > 50 mg/L | 6.25 mg/L (≈ 13.2 µM) | > 50 mg/L | > 50 mg/L | > 50 mg/L | 50 mg/L (≈ 106 µM) | > 50 mg/L | > 50 mg/L |  |  |
| CCOC(=O)[C@]1(C#N)[C@@H](c2c(F)cccc2Cl)CN(C)[C@@]12C(=O)Nc1ccc([N+](=O)[O-])cc12 | > 50 mg/L | > 50 mg/L | > 50 mg/L | 50 mg/L (≈ 106 µM) | 50 mg/L (≈ 106 µM) | 50 mg/L (≈ 106 µM) | > 50 mg/L | > 50 mg/L | > 50 mg/L | 50 mg/L (≈ 106 µM) |  |  |
| CC1(C)S[C@@H]2[C@H](NC(=O)[C@H](N)c3ccccc3)C(=O)N2[C@H]1C(=O)O [AMPICILLIN] | 50 mg/L (≈ 143 µM) | 50 mg/L (≈ 143 µM) | 0.19 mg/L (≈ 0.544 µM) | 0.39 mg/L (≈ 1.12 µM) |  |  |  |  |  |  |  |  |
| N#CC1(C#N)[C@@H](c2cccc([N+](=O)[O-])c2)C2CSCN2[C@@]12C(=O)Nc1ccccc12 (some centres not stated) | > 50 mg/L | > 50 mg/L | > 50 mg/L | 0.19 mg/L (≈ 0.455 µM) | > 50 mg/L | > 50 mg/L | > 50 mg/L | > 50 mg/L | > 50 mg/L | > 50 mg/L |  |  |
| CCOC(=O)[C@]1(C#N)[C@@H](c2cccs2)C2CSCN2[C@@]12C(=O)Nc1ccccc12 (some centres not stated) | > 50 mg/L | > 50 mg/L | > 50 mg/L | 0.09 mg/L (≈ 0.211 µM) | > 50 mg/L | > 50 mg/L | > 50 mg/L | 50 mg/L (≈ 117 µM) | > 50 mg/L | > 50 mg/L |  |  |
| CCOC(=O)[C@]1(C#N)[C@@H](c2ccc(Cl)cc2)CN(C)[C@@]12C(=O)Nc1c(C)cc(C)cc12 | > 50 mg/L | > 50 mg/L | 50 mg/L (≈ 114 µM) | 1.56 mg/L (≈ 3.56 µM) | 50 mg/L (≈ 114 µM) | 50 mg/L (≈ 114 µM) | 50 mg/L (≈ 114 µM) | 50 mg/L (≈ 114 µM) | 50 mg/L (≈ 114 µM) | 50 mg/L (≈ 114 µM) |  |  |
| CCOC(=O)[C@]1(C#N)[C@@H](c2ccc(OC)cc2)CN(C)[C@@]12C(=O)Nc1c(C)cc(C)cc12 | > 50 mg/L | > 50 mg/L | > 50 mg/L | 25 mg/L (≈ 57.7 µM) | > 50 mg/L | > 50 mg/L | > 50 mg/L | 50 mg/L (≈ 115 µM) | > 50 mg/L | > 50 mg/L |  |  |
| OC(Cn1cncn1)(Cn1cncn1)c1ccc(F)cc1F [FLUCONAZOLE] |  |  |  |  | 0.5 mg/L (≈ 1.63 µM) | 1 mg/L (≈ 3.27 µM) | 2 mg/L (≈ 6.53 µM) | 1 mg/L (≈ 3.27 µM) | 2 mg/L (≈ 6.53 µM) | 1 mg/L (≈ 3.27 µM) |  |  |
| CN1C[C@H](c2ccc(Cl)c(Cl)c2)C(C#N)(C#N)[C@]12C(=O)Nc1ccc(Cl)cc12 | > 50 mg/L | > 50 mg/L | > 50 mg/L | 6.25 mg/L (≈ 14.5 µM) | > 50 mg/L | > 50 mg/L | 50 mg/L (≈ 116 µM) | > 50 mg/L | > 50 mg/L | > 50 mg/L |  |  |
| C[C@@H]1[C@H](O)[C@@H](C)/C=C/C=C/C=C/C=C/C=C/C=C/C=C/[C@H](O[C@@H]2O[C@H](C)[C@@H](O)[C@H](N)[C@@H]2O)C[C@@H]2O[C@](O)(C[C@@H](O)C[C@@H](O)[C@H](O)CC[C@@H](O)C[C@@H](O)CC(=O)O[C@H]1C)C[C@H](O)[C@H]2C(=O)O [AMPHOTERICIN B] |  |  |  |  | 0.12 mg/L (≈ 0.13 µM) | 0.06 mg/L (≈ 0.0649 µM) | 0.12 mg/L (≈ 0.13 µM) | 0.12 mg/L (≈ 0.13 µM) | 0.5 mg/L (≈ 0.541 µM) | 0.12 mg/L (≈ 0.13 µM) |  |  |
| CCOC(=O)[C@]1(C#N)[C@@H](c2ccc(Cl)c(Cl)c2)CN(C)[C@@]12C(=O)Nc1ccc(Cl)cc12 | > 50 mg/L | > 50 mg/L | > 50 mg/L | 50 mg/L (≈ 104 µM) | > 50 mg/L | > 50 mg/L | > 50 mg/L | > 50 mg/L | > 50 mg/L | > 50 mg/L |  |  |
